According to patent US11718892B2, “Biological ore processing for the isolation of heavy metals” (CyPlus GmbH, priority 2015, dated 2023):

Key:
Test in all cases: Growth on agar plates with different concentrations of AgNO3 or HAuCl4 (resistance assay)
Type in all cases: cell-based
Set-up in all cases: key: x = growth; (x) = weak growth
Xanthomonas campestris = system: Xanthomonas campestris
From the text: (§1) The growth of several microorganisms (e.g. Escherichia coli, Xanthomonas campestris, Cupriavidus metallidurans and Bacillus sphaericus) was monitored in the presence of the lids with coated pins. Escherichia coli and Xanthomonas campestris served as negative controls with regard to metal binding; Cupriavidus metallidurans as positive control. Additionally, Bacillus sphaericus was used as a positive control for silver binding. For Bacillus sphaericus the binding to gold particles and gold coated surfaces was observed earlier by the inventors. Cupriavidus metallidurans is a gram-negative, rod-shaped bacterium which has gold binding capacity as described in the literature (Reith et al., 2006). The species name metallidurans indicates its resistance to heavy metals and its ability to survive in the presence of gold and silver was investigated previously (Reith F, Rogers S L, McPhail D C and Webb D. (2006) “Biomineralization of gold: biofilms on bacterioform gold.” Science 313(5784): 233-236; Reith F, Etschmann B, Grosse C, Moors H, Benotmane M A, Monsieurs P, Grass G, Doonan C, Vogt S, Lai B, Martinez-Criado G, George G N, Nies D H, Mergeay M, Pring A, Southam G and Brugger J. (2009) “Mechanisms of gold biomineralization in the bacterium Cupriavidus metallidurans.” Proc Natl Acad Sci 106(42):17757-17762; Ledrich ML1, Stemmler S, Laval-Gilly P, Foucaud L, and Falla J (2005) “Precipitation of silver-thiosulfate complex and immobilization of silver by Cupriavidus metallidurans CH34.” Biometals 18(6): 643-650).
(§2) To investigate the tolerated concentration of silver and gold, the microorganisms were propagated in liquid medium and streaked on agar plates with different concentrations of AgNO3 or HAuCl4, respectively.

Escherichia coli = system: Escherichia coli
From the text: as §1, §2

[1] = system: Cupriavidus metallidurans
From the text: as §1, §2

Bacillus sphaericus = system: Bacillus sphaericus
From the text: as §1, §2

`O=[N+]([O-])[O-].[Ag+]` [AgNO3] was tested, and the “Microbial growth dependence on AgNO3 concentration” value (Xanthomonas campestris; 2 μM AgNO3, agar plate) was “x”, the “Microbial growth dependence on AgNO3 concentration” value (Xanthomonas campestris; 10 μM AgNO3, agar plate) was “x” and the “Microbial growth dependence on AgNO3 concentration” value (Xanthomonas campestris; 20 μM AgNO3, agar plate) was “x”. For the same compound, the “Microbial growth dependence on AgNO3 concentration” value (Xanthomonas campestris; 50 μM AgNO3, agar plate) was “x”, the “Microbial growth dependence on AgNO3 concentration” value (Xanthomonas campestris; 100 μM AgNO3, agar plate) was “x” and the “Microbial growth dependence on AgNO3 concentration” value (Escherichia coli; 2 μM AgNO3, agar plate) was “x”. The “Microbial growth dependence on AgNO3 concentration” value (Escherichia coli; 10 μM AgNO3, agar plate) was “x”, the “Microbial growth dependence on AgNO3 concentration” value (Escherichia coli; 20 μM AgNO3, agar plate) was “x” and the “Microbial growth dependence on AgNO3 concentration” value (Escherichia coli; 50 μM AgNO3, agar plate) was “x”. The “Microbial growth dependence on AgNO3 concentration” value (Escherichia coli; 100 μM AgNO3, agar plate) was “x”, the “Microbial growth dependence on AgNO3 concentration” value ([1]; 2 μM AgNO3, agar plate) was “x” and the “Microbial growth dependence on AgNO3 concentration” value ([1]; 10 μM AgNO3, agar plate) was “x”. The “Microbial growth dependence on AgNO3 concentration” value ([1]; 20 μM AgNO3, agar plate) was “x”, the “Microbial growth dependence on AgNO3 concentration” value ([1]; 50 μM AgNO3, agar plate) was “x” and the “Microbial growth dependence on AgNO3 concentration” value ([1]; 100 μM AgNO3, agar plate) was “x”. The “Microbial growth dependence on AgNO3 concentration” value ([1]; 150 μM AgNO3, agar plate) was “x”, the “Microbial growth dependence on AgNO3 concentration” value ([1]; 200 μM AgNO3, agar plate) was “(x)” and the “Microbial growth dependence on AgNO3 concentration” value (Bacillus sphaericus; 2 μM AgNO3, agar plate) was “x”. The “Microbial growth dependence on AgNO3 concentration” value (Bacillus sphaericus; 10 μM AgNO3, agar plate) was “x”, the “Microbial growth dependence on AgNO3 concentration” value (Bacillus sphaericus; 20 μM AgNO3, agar plate) was “x” and the “Microbial growth dependence on AgNO3 concentration” value (Bacillus sphaericus; 50 μM AgNO3, agar plate) was “x”. The “Microbial growth dependence on AgNO3 concentration” value (Bacillus sphaericus; 100 μM AgNO3, agar plate) was “x” and the “Microbial growth dependence on AgNO3 concentration” value (Bacillus sphaericus; 150 μM AgNO3, agar plate) was “x”.
With `[Au+3].[Cl-].[Cl-].[Cl-].[Cl-].[H+]` [HAuCl4] the “Microbial growth dependence on HAuCl4 concentration” value (Xanthomonas campestris; 2 μM HAuCl4, agar plate) was “x”, the “Microbial growth dependence on HAuCl4 concentration” value (Xanthomonas campestris; 20 μM HAuCl4, agar plate) was “x” and the “Microbial growth dependence on HAuCl4 concentration” value (Xanthomonas campestris; 100 μM HAuCl4, agar plate) was “x”. For the same compound, the “Microbial growth dependence on HAuCl4 concentration” value (Xanthomonas campestris; 200 μM HAuCl4, agar plate) was “x”, the “Microbial growth dependence on HAuCl4 concentration” value (Xanthomonas campestris; 300 μM HAuCl4, agar plate) was “x” and the “Microbial growth dependence on HAuCl4 concentration” value (Escherichia coli; 2 μM HAuCl4, agar plate) was “x”. For the same compound, the “Microbial growth dependence on HAuCl4 concentration” value (Escherichia coli; 20 μM HAuCl4, agar plate) was “x”, the “Microbial growth dependence on HAuCl4 concentration” value (Escherichia coli; 100 μM HAuCl4, agar plate) was “x” and the “Microbial growth dependence on HAuCl4 concentration” value (Escherichia coli; 200 μM HAuCl4, agar plate) was “x”. For the same compound, the “Microbial growth dependence on HAuCl4 concentration” value (Escherichia coli; 300 μM HAuCl4, agar plate) was “x”, the “Microbial growth dependence on HAuCl4 concentration” value ([1]; 2 μM HAuCl4, agar plate) was “x” and the “Microbial growth dependence on HAuCl4 concentration” value ([1]; 20 μM HAuCl4, agar plate) was “x”. The “Microbial growth dependence on HAuCl4 concentration” value ([1]; 100 μM HAuCl4, agar plate) was “x”, the “Microbial growth dependence on HAuCl4 concentration” value ([1]; 200 μM HAuCl4, agar plate) was “x” and the “Microbial growth dependence on HAuCl4 concentration” value ([1]; 300 μM HAuCl4, agar plate) was “x”. For the same compound, the “Microbial growth dependence on HAuCl4 concentration” value ([1]; 400 μM HAuCl4, agar plate) was “x”, the “Microbial growth dependence on HAuCl4 concentration” value ([1]; 500 μM HAuCl4, agar plate) was “x” and the “Microbial growth dependence on HAuCl4 concentration” value (Bacillus sphaericus; 2 μM HAuCl4, agar plate) was “x”. For the same compound, the “Microbial growth dependence on HAuCl4 concentration” value (Bacillus sphaericus; 20 μM HAuCl4, agar plate) was “x”, the “Microbial growth dependence on HAuCl4 concentration” value (Bacillus sphaericus; 100 μM HAuCl4, agar plate) was “x” and the “Microbial growth dependence on HAuCl4 concentration” value (Bacillus sphaericus; 200 μM HAuCl4, agar plate) was “x”.
